Assay results as given in ChEMBL document CHEMBL3988442, “University of Dundee, Small-Polar-MMV Screening Library” (2021).
Where “and” joins values, the source holds several entries; their conditions need not be identical. Equal values may be shown once.

How the values were obtained:
Histidine--tRNA ligase = molecular target: T1, Histidine--tRNA ligase (Leishmania infantum, UniProt A4I591); assay: Leishmania infantum Histidine tRNA synthetase (LdHisRS); type: functional
T1 sequence (A4I591 whole entry): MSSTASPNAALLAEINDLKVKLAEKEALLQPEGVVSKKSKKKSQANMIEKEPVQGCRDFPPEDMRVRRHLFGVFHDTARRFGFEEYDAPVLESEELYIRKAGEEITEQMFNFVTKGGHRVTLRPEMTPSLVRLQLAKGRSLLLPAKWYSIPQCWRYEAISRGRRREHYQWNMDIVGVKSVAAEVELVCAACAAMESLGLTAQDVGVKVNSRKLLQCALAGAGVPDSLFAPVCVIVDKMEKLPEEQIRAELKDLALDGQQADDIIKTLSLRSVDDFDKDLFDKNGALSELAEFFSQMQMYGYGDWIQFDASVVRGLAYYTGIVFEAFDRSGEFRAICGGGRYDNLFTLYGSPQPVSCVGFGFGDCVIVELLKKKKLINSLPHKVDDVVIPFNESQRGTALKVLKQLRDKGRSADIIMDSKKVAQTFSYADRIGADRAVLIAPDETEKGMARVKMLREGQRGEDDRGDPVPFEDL

[1] = To identify inhibition of the IFN signalling (Jak-Stat) pathway via expression of an eGFP reporter gene under the control of an IFN-stimulated response element (ISRE) containing MxA promoter.; type: functional, Homo sapiens
Leishmania donovani = assay: Leishmania intramacrophage assay; type: functional, organism-based; details: for IC50: Leishmania donovani
[2] = In vitro enzyme assay to detect hydrolysis of chlorophenol red-beta-D-[…] directly proportional to the number of Toxoplasma stably expressing beta-galactosidase; type: functional, organism-based, Toxoplasma gondii; details: Toxoplasma gondii
Schistosoma mansoni = assay: High throughput screening of compounds against Schistosoma mansoni motility; type: functional; design: dose or concentration left out as unconfirmed
Wolbachia pipientis = assay: Anti-Wolbachia Cell-Based Screen; type: functional; details: Wolbachia pipientis
Lysine--tRNA ligase = Lysine--tRNA ligase (Plasmodium falciparum (isolate 3D7), UniProt Q8IDJ8); assay: Pf-KRS-1 (Lysyl-RNA Synthetase-1, KRS-1, cytosolic KRS) from Plasmodium falciparum. Inhibitor assay, 384 well plate, luminescence read.; type: functional
[3] = microbe, parasite or virus in culture; details: Mycobacterium tuberculosis, 96 h, read-out: pIC50 (converted)
[4] = microbe, parasite or virus in culture; details: Mycobacterium tuberculosis, 72 h, read-out: pIC50 (converted)
[5] = molecular target: Polyketide synthase Pks13 (Mycobacterium tuberculosis (strain ATCC 25618 / H37Rv), UniProt I6X8D2); assay: Mycobacterium tuberculosis Polyketide synthase 13 Thioesterase (PKS13); type: functional
ClpP1P2 = ClpP1P2 (Mycobacterium tuberculosis (strain ATCC 25618 / H37Rv), UniProt P9WPC3+P9WPC5); assay: in vitro assay to detect presence of AMC directly proportional to the activity of ClpP1P2. GHDDI collaboration.; type: functional
[6] = molecular target: AMP-activated protein kinase, AMPK; assay: AMP-dependent Kinase enzyme assay. An in vitro enzyme assay that detects ADP turnover that is directly proportional to AMPK activity. This uses naive AMPK that is activated during the assay with MK-8722; type: functional, Homo sapiens
Trypanosoma brucei = assay: Trypanosoma brucei 72 hour study; type: functional, organism-based
[7] = molecular target: Chromo domain-containing protein 1 (Saccharomyces cerevisiae (strain ATCC 204508 / S288c) (Baker's yeast), UniProt P32657); assay: ScCHD-1 Enzyme Inhibition Assay; type: functional

SMILES | pIC50 [1] | other results
CCC(C)NC(=O)NCCCn1nc2ccccn2c1=O (stereo unspecified) | < 4.21 | IC50 (Histidine--tRNA ligase): > 100 µM
Cc1ccc(C(=O)Nc2cc(C(C)C)n[nH]2)cn1 | 4.606 and 4.922 | 
COc1ccccc1CNC(=O)C1=NN(c2ccc(C)cc2)C(=O)CN1 | 4.606 and 4.808 | pIC50 (Leishmania donovani): < 4.3 and 4.742; IC50 [2]: 10.8 µM
CC(C)c1nnc2ccc(N3CCC(C(=O)Nc4nccs4)CC3)nn12 | 5 and 4.933 | 
COc1ncccc1NC(=O)N(Cc1ccc(C)o1)C1CC1 | 4.53 and 4.637 | 
CC(C)c1nc(C2CCCN(C(=O)CCCn3cncn3)C2)no1 (stereo unspecified) | < 4.21 | 
CN1C(=O)C(C)(C)COc2cc(NS(=O)(=O)Cc3ccccc3)ccc21 | < 4.21 and 4.593 | Percent Effect (Schistosoma mansoni): 31.95%
COC(=O)c1ccc(S(=O)(=O)NCc2cccnc2N(C)C)cc1 | 4.637 and 5.104 | 
COc1cc(CN(C)C(=O)Cc2c(C)nn(C)c2C)ccc1OC(F)F | 5.786 [middle of 4 runs] | Percent Effect (Schistosoma mansoni): -34.16%
Clc1ccc2cccnc2c1CN1CCCC1Cn1cncn1 (stereo unspecified) | 4.696 and 4.448 | 
COc1c(CNC2CCSc3ccc(F)cc32)c(C)nn1C.Cl (stereo unspecified) | 4.845 and 5.142 | IC50 (Wolbachia pipientis): > 10 µM
COc1ccc(C)cc1CN1CCCC1c1noc(C2CC2)n1 (stereo unspecified) | 4.543 and 4.502 | 
CCOc1ccc(S(=O)(=O)NCc2cccnc2N(C)C)cc1 | 5.549 and 5.242 | IC50 (Leishmania donovani): > 50.1 µM; IC50 (Lysine--tRNA ligase): > 50.1 µM
CC(C)(O)C1CCN(C(=O)Nc2nc(-c3ccccc3)ns2)CC1 | 4.605 and 4.639 | 
CCS(=O)(=O)N1CCCc2ccc(NC(=O)Cc3ccc(F)cc3)cc21 | 4.555 and 4.597 | 
CC(C)(C)C(=O)N1C[C@H](c2ccsc2)[C@H]2CN(Cc3cccs3)CC[C@H]21.Cl | 4.58 and 4.539 | 
COCC1c2c(cnn2CC2CC2)CCN1Cc1ccc(OC)cc1 (stereo unspecified) | 5.287 and 5.465 | 
O=C(Cc1noc2ccccc12)N1CCCC1c1noc(C2CC2)n1 (stereo unspecified) | 4.845 and 4.787 | 
Cc1nc(C)n(CC2CCCN(c3ncnc4c3CCC4)C2)n1 (stereo unspecified) | 5.177 and 5.243 | 
COc1cccc(CN2CCN(c3ccc4nncn4n3)C(C)C2)c1 (stereo unspecified) | 4.923 and 4.922 | 
Cc1noc(NC(=O)c2ccc(C)c(F)c2)n1 | 4.682 and < 4.57 | IC50 [3]: 27.1 µM; IC50 [4]: 30.5 µM

SMILES | pIC50 [1] | other results
OCC1CCCN1c1cc(NCc2ccc(Cl)s2)ncn1 (stereo unspecified) | 4.462 and 4.49 | 
CN(Cc1ccco1)[C@@H]1CN(C(=O)c2ccnnc2)[C@@H]2CCCO[C@H]12.O=C(O)C(F)(F)F | < 4.21 | 
c1cnn(CC2CN(c3ncnc4ccsc34)CCO2)c1 (stereo unspecified) | 4.809 and 4.868 | 
O=C(C1CCN(c2snc3ccccc23)CC1)N1CCCCCC1 | 4.575 and 4.655 | 
COc1cccc(CNc2cnn(C)c(=O)c2Cl)c1 | 4.709 and 5.107 | 
COCCN1CCc2cc(C(=O)NCC3CC3)c(NC(C)C)nc2CC1.O=C(O)C(F)(F)F.O=C(O)C(F)(F)F | 5.014 and 5.099 | IC50 [5]: 18.4 µM and 14.5 µM; IC50 (ClpP1P2): > 100 µM
O=C1NCCN1C1CCCN(Cc2coc(-c3ccc(F)cc3)n2)C1 (stereo unspecified) | 4.93 and 4.918 | 
Cc1ccc(CC(=O)Nc2cc(C(C)C)n[nH]2)cn1 |  | pIC50 (Leishmania donovani): 4.917; IC50 (Leishmania donovani): 11.7 µM; pIC50 [6]: < 4; pIC50 (Trypanosoma brucei): 4.869 and 4.956; IC50 (Trypanosoma brucei; Trypanosoma brucei, 72 h): 12.7 µM
Cc1cnn(CC2CN(c3ncnc4ccsc34)CCO2)c1 (stereo unspecified) | 5.764 [middle of 4 runs] | IC50 (Leishmania donovani): > 50.1 µM
CCc1nc(CN2CCN(c3ncnc4cc(F)ccc34)CC2)no1 | 5.76 [middle of 4 runs] | 
O=C(O)C(F)(F)F.O=C(O)C(F)(F)F.O=C(O)C(F)(F)F.c1ccc(CO[C@@H]2CO[C@@]3(CCN(Cc4ccccn4)C3)C2)nc1 | < 4.21 | 
Cc1cc(-c2cnc(NCc3cccnc3)nc2C(C)C)on1 | 4.396 and 4.538 | 
CC1CN(CC2CCCCC2)CCN1c1ccc2nncn2n1 (stereo unspecified) | 4.49 and 4.459 | IC50 [7]: > 29.5 µM; IC50 (ClpP1P2): > 100 µM
N#Cc1c(F)cccc1N1CCN(S(=O)(=O)c2cccs2)CC1 | 4.537 and 4.564 | Percent Effect (Schistosoma mansoni): 35.72%; IC50 [7]: > 29.5 µM
Cc1n[nH]cc1CNc1ccc2c(c1)CN(C(=O)OC(C)(C)C)CC2 | 4.816 and 4.848 | 
COCC1CCCN(C(=O)c2cc(Cn3ccc4ccccc43)[nH]n2)C1 (stereo unspecified) | < 4.21 | IC50 [7]: > 29.5 µM and 18.8 µM
Cc1nc(C)n(C2CCCN(C(=O)c3ccc(N(C)C)nn3)C2)n1 (stereo unspecified) | < 4.21 | 
CC(C)c1n[nH]c(C(=O)Nc2ccncc2)c1Br | 4.519 and 4.533 | IC50 (Leishmania donovani): > 50.1 µM
CCOCCCn1c(NC(=O)c2scnc2C)nc2ccccc21 | 4.523 and 4.463 | IC50 [7]: > 29.5 µM
Cc1cc(CN2CCCC2c2noc(C3CC3)n2)c2ccccc2n1 (stereo unspecified) | 5.12 and 5.038 | 
O=C(O)C(F)(F)F.O=C(c1ncccn1)N1C[C@H]2CCC[C@@]2(COCc2cccnc2)C1 | < 4.21 | 

SMILES | pIC50 [1] | other results
Cc1cc(-c2cnc(N3CCCC(C)C3)nc2-c2cccnc2C)on1.Cl (stereo unspecified) | 4.421 and 4.521 | 
COc1ccc(-c2nnc(SC(C)C(=O)NC3CC3)[nH]2)c(OC)c1 (stereo unspecified) | 4.665 and 4.584 | 
c1cnn(CC2CCCN2c2ncnc3sccc23)c1 (stereo unspecified) | 5.137 and 5.086 | 
CCc1ccc(CN2C[C@@H]3OCCN(c4ccnc(N(C)C)n4)[C@@H]3C2)o1.O=C(O)C(F)(F)F | 5.071 and 5.204 | 
CC(=O)N1C[C@@H](c2ccsc2)[C@@H]2CN(Cc3cccc(Cl)c3)CC[C@@H]21 | 4.483 and 4.43 | 
CCS(=O)(=O)N1CCc2ccc(NC(=O)Nc3cccc(SC)c3)cc21 | 5.726 [middle of 4 runs] | 
CC(C)N1Cc2c(C(=O)N3CCOCC3)nn(C)c2C1.O=C(O)C(F)(F)F.O=C(O)C(F)(F)F | < 4.21 | 
CS(=O)(=O)c1ccc(NC(=O)N2CCc3sccc3C2)cn1 | 4.408 and 4.389 | 
CCn1c(C2CCCN(Cc3nccn3CCOC)C2)nn(C)c1=O (stereo unspecified) | < 4.21 | 
Cc1nc(CCNC(=O)NCc2ccc(N(C)C)nc2)cs1 | < 4.21 | 
CC(=O)c1c(F)cccc1N1CCC(Cc2cccnc2)CC1 | 5.268 and 5.138 | 
Cn1cc(-c2csc(N3CCN(C(=O)OC(C)(C)C)CC3)n2)cn1 | 4.669 and 4.891 | Percent Effect (Schistosoma mansoni): -8.994%
CC(=O)c1ccc(N2CCCC(CO)(CCOc3ccccc3)C2)nc1 (stereo unspecified) | 4.524 and 4.702 | 
Cc1nc(C)n(CC2CCCN(c3ncnc4sccc34)C2)n1 (stereo unspecified) | 5.597 and 5.199 | 
Nc1nccc(-c2c[nH]nc2C2CCCCC2)n1 | 4.943 and 4.951 | 
CC(C)N(CC(N)=O)Cc1csc(COc2ccc(F)cc2)n1 | 5.121 and 5.081 | 
Cc1ccc(S(=O)(=O)N2C[C@H]3C[C@H](NC(=O)c4ccnn4C)[C@H]3C2)cc1 | 5.601 and 5.47 and 5.597 and 5.592 | 
CN(C)c1ccc(CCCNC(=O)Nc2ccc(C#N)cc2)cc1 | 4.654 and 4.645 | 
CCn1ncc2c1CCCC2NCc1cc(Cl)c(OC)c(OC)c1 (stereo unspecified) | 4.746 and 4.672 | 
